Tests used:
[1] = Size, polydispersity index and surface charge of mRNA-LNP (Malvern Zetasizer Nano ZS90); format: physicochemical; conditions: for PDI / size (nm) Number: mRNA-LNP made with the ionizable lipid at its optimal formulation (Table 2); for size (nm) Number: diluted with PBS to 1 μg/mL mRNA; for Zeta (mV): surface charge of mRNA-LNP made with the ionizable lipid at its optimal formulation (Table 2)
Protocol: Each mRNA-LNPs produced in Example 27 was diluted with PBS to a final mRNA concentration of 1 μg/mL. The size, polydispersity index (PDI), and surface charge of the mRNA-LNPs were then measured using a Malvern Zetasizer Nano ZS90 (Malvern Instruments, UK).
For particles intended for systemic administration, such as via blood vessels, the particle size must be less than 200 nm in order to pass through the endothelial capillaries of the liver. In addition, the size distribution is considered uniform only when the PDI is 0.3 or less, which enables consistent and efficient therapeutic effects (Non-patent document 3 [Danaei, M. et al). Pharmaceutics 2018, 10, 57]).

[2] = mRNA encapsulation efficiency (Quant-IT RiboGreen RNA assay); format: physicochemical; conditions: mRNA encapsulation efficiency of mRNA-LNP made with the ionizable lipid; average of two measurements
Protocol: The mRNA encapsulation efficiency (EE, %) of LNPs containing mRNA was measured using the Quant-IT™ RiboGreen® RNA assay kit (Invitrogen, USA).
The diluted samples were added to each well of a 96-well plate. Group A (without Triton X-100) was supplemented with 50 μL of 1×TE buffer, while Group B (with Triton X-100) was supplemented with 50 μL of 1×TE buffer containing 2% Triton-X 100. To release the encapsulated mRNA, the LNPs were treated with Triton-X 100 and incubated at 37° C. for 10 minutes. Subsequently, 100 μL of ribogreen reagent was added to each well. The fluorescence intensities of Group A and Group B were measured using a multi-plate reader (λex 480 nm, λem 520 nm), and mRNA encapsulation efficiency (%) was calculated using Equation 1 below. The encapsulation efficiency for each LNP was determined as the average of two independent measurements.

female C57BL/6 mice = test: Protein expression efficiency of fLuc mRNA-LNPs after intramuscular injection (IVIS whole-body luminescence); format: in vivo; conditions: for Total flux 1 hour / Total flux 3 hours / Total flux 6 hours / Total flux 48 hours / Total flux 72 hours / Total flux: fLuc mRNA-LNP, intramuscular injection, luminescence at injection site, mice; for Total flux 1 hour: 1 hour after administration; for Total flux 3 hours: 3 hours after administration; for Total flux 6 hours: 6 hours after administration; for Total flux 48 hours: 48 hours after administration; for Total flux 72 hours: 72 hours after administration; for Total flux: after administration; for Fold increase in total flux at 3 h, MC3: relative to control LNP formulated with MC3; for Fold increase in total flux at 3 h, MC3 / Fold increase in total flux at 3 h, SM-102: 3 hours after intramuscular injection; for Fold increase in total flux at 3 h, SM-102: relative to control LNP formulated with SM-102
Protocol: fLuc mRNA-LNPs formulated using various ionizable lipids were prepared according to the method described in Example 27 and administered in vivo via intramuscular (I. M.) or intravenous (IV.) injection to compare the resulting protein expression efficiency in vivo. As a control, EGFP mRNA-LNPs formulated with commercially available ionizable lipids MC3 or SM-102 were used. All mRNA-LNPs were administered at equal mRNA doses per body weight across different concentration groups (n≥4).
Specifically, the dose of mRNA-LNPs was adjusted to 0.1-0.5 mg/kg of body weight, and the formulation was administered via I.M. or I.V. injection to female C57BL/6 mice (6-10 weeks old, Orient Bio, Korea) Subsequently, […], whole-body luminescence images were acquired using an in vivo imaging system (IVIS Lumina III, PerkinElmer, Walzam, MA, USA). To assess protein expression levels, 200 μL of D-luciferin (15 mg/mL) was administered via intraperitoneal (I.P.) injection 10 minutes prior to imaging. During image acquisition, the animals were anesthetized by inhalation of 3% isoflurane in 97% medical grade oxygen. In addition, the acquired luminescence images were quantitatively analyzed using imaging software (Living Image Software Version 4.4; PerkinElmer, USA).
After intramuscular injection of the fLuc mRNA-LNPs, the luminescence intensity at the injection site was measured over time.
Furthermore, the luminescence intensity at the injection site 3 hours after intramuscular injection was measured, and the relative protein expression efficiency was compared to that of control LNPs formulated with MC3 or SM-102.

[3] = Stability of mRNA-LNPs according to storage temperature and duration; format: physicochemical; conditions: for Normalized EE % D-1 / Size (nm) D-1 / PDI D-1: day 1; for Normalized EE % D-7 / PDI D-7 / Size (nm) D-7: day 7; for Normalized EE % D-30 / PDI D-30 / Size (nm) D-30: day 30
Protocol: Stability of fLuc mRNA-LNPs produced using various ionizable lipids according to the method of Example 27, was assessed by storing the LNPs at 4° C. and 25° C. At 1, 7, and 30 days post-manufacture, the size, PDI, and encapsulation efficiency (EE) of each mRNA-LNPs samples were measured using the methods described in Experimental Examples 2 and 3.

Row | Structure (SMILES) | PDI [1] | size (nm) Number [1] [nm] | Zeta (mV) [1] [mV] | EE (%) [2] [%] | Total flux 1 hour (female C57BL/6 mice) | Total flux 3 hours (female C57BL/6 mice) | Total flux 6 hours (female C57BL/6 mice) | Total flux 48 hours (female C57BL/6 mice) | Total flux 72 hours (female C57BL/6 mice) | Total flux (female C57BL/6 mice) | Fold increase in total flux at 3 h, MC3 (female C57BL/6 mice) | Fold increase in total flux at 3 h, SM-102 (female C57BL/6 mice) | Normalized EE % D-1 ([3]; fLuc mRNA-LNP stored at 4° C.) [%] | Size (nm) D-1 ([3]; fLuc mRNA-LNP stored at 4° C.) [nm] | Normalized EE % D-7 ([3]; fLuc mRNA-LNP stored at 4° C.) [%] | PDI D-7 ([3]; fLuc mRNA-LNP stored at 4° C.) | Size (nm) D-7 ([3]; fLuc mRNA-LNP stored at 4° C.) [nm] | Normalized EE % D-30 ([3]; fLuc mRNA-LNP stored at 4° C.) [%] | PDI D-30 ([3]; fLuc mRNA-LNP stored at 4° C.) | Size (nm) D-30 ([3]; fLuc mRNA-LNP stored at 4° C.) [nm] | further results
1 | CCCCCCCCCCCOC(=O)CCCCCN(CCCCCCCC(=O)OC(CCCCCCCC)CCCCCCCC)CC(O)CCCCNC(=O)c1cccn1C (stereo not shown) [Compound 18, Heptadecan-9-yl 8-((2-hydroxy-6-(1-methyl-1H-pyrrole-2-carboxamido)hexyl) (6-oxo-6-(undecyloxy)hexyl)amino)octanoate] | 0.145 | 125 | −1.04 | 88 | 1.63E+06 | 7.75E+06 | 1.56E+07 | 1.54E+05 | 1.96E+05 | 1.70E+06 | 0.63 | 0.07 | 88.0 | 124.6 | 85.3 | 0.064 | 121.4 | 87.6 | 0.106 | 126.6 | Normalized EE % D-1 ([3]; fLuc mRNA-LNP stored at 25° C.): 88.0%; PDI D-1 ([3]; fLuc mRNA-LNP stored at 25° C.): 0.145; Size (nm) D-1 ([3]; fLuc mRNA-LNP stored at 25° C.): 124.6 nm; Normalized EE % D-7 ([3]; fLuc mRNA-LNP stored at 25° C.): 85.6%; PDI D-7 ([3]; fLuc mRNA-LNP stored at 25° C.): 0.016; Size (nm) D-7 ([3]; fLuc mRNA-LNP stored at 25° C.): 126.1 nm; Normalized EE % D-30 ([3]; fLuc mRNA-LNP stored at 25° C.): 87.0%; PDI D-30 ([3]; fLuc mRNA-LNP stored at 25° C.): 0.125; Size (nm) D-30 ([3]; fLuc mRNA-LNP stored at 25° C.): 127.5 nm
2 | CCCCCCCCCCCOC(=O)CCCCCN(CCCCCCCC(=O)OC(CCCCCCCC)CCCCCCCC)CC(O)CCCCNC(=O)c1ncc[nH]1 (stereo not shown) [Compound 33, Heptadecan-9-yl 8-((2-hydroxy-6-(1H-imidazole-2-carboxamido)hexyl)(6-oxo-6-(undecyloxy)hexyl)amino)octanoate] | 0.145 | 113 | −8.94 | 90 | 1.80E+06 | 1.17E+07 | 1.26E+07 | 4.56E+05 | 4.96E+05 | 2.62E+06 | 0.94 | 0.10 | 90.0 | 112.8 | 83.3 | 0.079 | 120.3 | 89.3 | 0.113 | 115.6 | Normalized EE % D-1 ([3]; fLuc mRNA-LNP stored at 25° C.): 90.0%; PDI D-1 ([3]; fLuc mRNA-LNP stored at 25° C.): 0.145; Size (nm) D-1 ([3]; fLuc mRNA-LNP stored at 25° C.): 112.8 nm; Normalized EE % D-7 ([3]; fLuc mRNA-LNP stored at 25° C.): 82.1%; PDI D-7 ([3]; fLuc mRNA-LNP stored at 25° C.): 0.133; Size (nm) D-7 ([3]; fLuc mRNA-LNP stored at 25° C.): 122.9 nm; Normalized EE % D-30 ([3]; fLuc mRNA-LNP stored at 25° C.): 87.2%; PDI D-30 ([3]; fLuc mRNA-LNP stored at 25° C.): 0.113; Size (nm) D-30 ([3]; fLuc mRNA-LNP stored at 25° C.): 106.4 nm
